Test results published in ChEMBL document CHEMBL4304837, “Discovery of Pyridazinone and Pyrazolo[1,5-a]pyridine Inhibitors of C-Terminal Src Kinase” (ACS Med Chem Lett, 2019).

Assays:
[1] = biological target: T1, Tyrosine-protein kinase ZAP-70 (Homo sapiens) (UniProt P43403); experiment: Effect on ZAP70 phosphorylation in human Jurkat cells pre-incubated for 30 mins followed by anti-CD3/CD28 stimulation measured after 10 mins relative to control; assay type: cell-based
T1 sequence (whole entry): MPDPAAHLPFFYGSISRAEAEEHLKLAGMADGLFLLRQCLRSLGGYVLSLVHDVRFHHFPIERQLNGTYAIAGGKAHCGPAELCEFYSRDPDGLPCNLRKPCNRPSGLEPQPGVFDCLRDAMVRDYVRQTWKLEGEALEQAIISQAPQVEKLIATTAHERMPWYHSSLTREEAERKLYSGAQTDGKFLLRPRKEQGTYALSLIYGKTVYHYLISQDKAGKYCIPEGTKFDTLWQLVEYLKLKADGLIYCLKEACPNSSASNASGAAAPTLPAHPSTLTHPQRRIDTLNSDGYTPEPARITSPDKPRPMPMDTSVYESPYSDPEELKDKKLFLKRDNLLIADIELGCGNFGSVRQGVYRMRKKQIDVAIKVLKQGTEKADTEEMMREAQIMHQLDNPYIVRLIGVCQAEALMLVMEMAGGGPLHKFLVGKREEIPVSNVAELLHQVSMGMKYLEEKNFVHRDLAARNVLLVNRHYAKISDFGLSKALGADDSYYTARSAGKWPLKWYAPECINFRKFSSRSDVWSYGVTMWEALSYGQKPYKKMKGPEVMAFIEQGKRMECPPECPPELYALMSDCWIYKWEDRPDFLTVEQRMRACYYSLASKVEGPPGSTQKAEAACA

[2] = biological target: Tyrosine-protein kinase Lck (Homo sapiens, UniProt P06239); experiment: Inhibition of His-tagged/GST-tagged LCK (unknown origin) incubated for 1 hr by TR-FRET assay
[3] = Metabolic stability in human liver microsomes assessed as compound remaining at 0.5 uM measured after 10 mins in presence of NADPH by LC-MS/MS analysis; assay type: ADME, Microsome; settings: read-out: Stability
[4] = Metabolic stability in mouse liver microsomes assessed as compound remaining at 0.5 uM measured after 10 mins in presence of NADPH by LC-MS/MS analysis; assay type: ADME, Microsome; settings: read-out: Stability
[5] = Protein binding in mouse serum assessed as unbound fraction measured up to 5 hrs by LC-MS/MS analysis relative to control; assay type: ADME, cell-free
[6] = Half life in human liver microsomes at 0.5 uM measured up to 45 mins by LC-MS/MS analysis; assay type: ADME, Microsome
[7] = Half life in mouse liver microsomes at 0.5 uM measured up to 45 mins by LC-MS/MS analysis; assay type: ADME, Microsome
[8] = Protein binding in human serum assessed as unbound fraction measured up to 5 hrs by LC-MS/MS analysis relative to control; assay type: ADME, cell-free
[9] = Half life in C57BL/6 mouse at 100 mg/kg, po; assay type: ADME, organism-based; settings: in vivo
[10] = Plasma concentration in C57BL/6 mouse at 100 mg/kg, po; assay type: ADME, organism-based; settings: in vivo
[11] = Cmax in C57BL/6 mouse at 100 mg/kg, po; assay type: ADME, organism-based; design: dose 100 mg/kg, route oral; settings: in vivo
[12] = Tmax in C57BL/6 mouse at 100 mg/kg, po; assay type: ADME, organism-based; settings: in vivo
[13] = AUC in C57BL/6 mouse at 100 mg/kg, po; assay type: ADME, organism-based; settings: in vivo
[14] = Drug concentration in C57BL/6 mouse at 100 mg/kg, po after 24 hrs; assay type: ADME, organism-based; settings: in vivo, read-out: Ct
[15] = Drug metabolism in mouse liver microsomes assessed as oxidation at indazole ring by soft spot analysis; assay type: ADME, Microsome
[16] = Effect on human CD4-positive T cell activation assessed as increase in increase in CD4-positive T cells proliferation preincubated for 15 mins followed by co-culture with CHO cells and measured after 48 hrs by AlphaLisa assay; assay type: cell-based
Homo sapiens [17] = species on record: Homo sapiens; experiment: Immunostimulatory activity in human CD4-positive T cells assessed as increase in OKT-induced increase in CD4-positive T cells proliferation pre incubated for 15 mins followed by co-culture with CHO cells over-expressing OKT and measured after 72 hrs by MTS assay; assay type: functional, cell-based
[18] = Effect on human CD4-positive T cell activation assessed as increase in IL-2 secretion preincubated for 15 mins followed by co-culture with CHO cells and measured after 48 hrs by AlphaLisa assay
Homo sapiens [19] = species on record: Homo sapiens; experiment: Immunostimulatory activity in human CD4-positive T cells assessed as increase in OKT-induced IL-2 secretion pre incubated for 15 mins followed by co-culture with CHO cells over-expressing OKT and measured after 48 hrs by AlphaLisa assay; assay type: functional, cell-based
[20] = Drug metabolism in mouse liver microsomes assessed as oxidation at […] group by soft spot analysis; assay type: ADME, Microsome

Tyrosine-protein kinase Lck, sequence (P06239 whole entry): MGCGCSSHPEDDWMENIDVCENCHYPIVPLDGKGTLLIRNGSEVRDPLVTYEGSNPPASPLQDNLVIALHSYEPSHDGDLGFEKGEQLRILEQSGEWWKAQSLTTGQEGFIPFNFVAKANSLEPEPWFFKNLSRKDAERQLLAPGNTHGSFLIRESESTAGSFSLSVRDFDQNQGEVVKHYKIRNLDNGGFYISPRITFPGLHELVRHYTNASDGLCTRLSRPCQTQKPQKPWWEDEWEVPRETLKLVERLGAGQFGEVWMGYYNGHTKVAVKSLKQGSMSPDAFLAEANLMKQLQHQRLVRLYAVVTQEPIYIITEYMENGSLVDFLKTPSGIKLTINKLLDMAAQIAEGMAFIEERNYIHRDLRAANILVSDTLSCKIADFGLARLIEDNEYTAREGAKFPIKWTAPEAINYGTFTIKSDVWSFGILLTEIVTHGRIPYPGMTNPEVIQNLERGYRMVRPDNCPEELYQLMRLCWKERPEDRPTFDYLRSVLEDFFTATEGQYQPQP

SMILES	Emax [1]	remaining at 10 min, 0.5 µM [3]	remaining at 10 min, 0.5 µM [4]	further results
CC(C)(C)NC(=O)N1CC(Cn2nc(C(=O)Nc3ccc(-c4ccc(=O)[nH]n4)c(Cl)c3)c3ccccc32)C1	73%	2%	33%	IC50 [2]: > 50 µM
COc1ccc2c(C(=O)Nc3ccc(NC(=O)c4nn(C5CCN(C(=O)NC(C)(C)C)CC5)c5ccc(F)cc45)cc3Cl)cnn2c1	210%	85%	99%	Fu [5]: < 0.2%; half-life at 0.5 µM [6]: > 2 h; half-life at 0.5 µM [7]: 1.47 h; Fu [8]: 0.4%
CC(C)(C)NC(=O)N1CCC(n2nc(C(=O)Nc3ccc(NC(=O)c4cnn5ccccc45)c(Cl)c3)c3ccccc32)CC1	250%	84%	24%	–
CC(C)(C)NC(=O)N1CCC(n2nc(C(=O)Nc3ccc(NC(=O)c4cnn5ccccc45)cc3)c3ccccc32)CC1	240%	71%	21%	–
COc1ccc2c(C(=O)Nc3ccc(NC(=O)c4nn(C)c5ccccc45)cc3C)cnn2c1	–	–	59%	–
Cc1cc(NC(=O)c2nn(C3CCN(C(=O)NC(C)(C)C)CC3)c3ccccc23)ccc1NC(=O)c1cnn2ccccc12	190%	72%	10%	Drug metabolism [15]: Metabolite_Detected
COc1ccc2c(C(=O)Nc3ccc(NC(=O)c4nn(C5CCN(C(=O)CC(C)(C)C#N)CC5)c5ccc(F)cc45)cc3Cl)cnn2c1	360%	91%	100%	Activity [16]: Non-Toxic; Fu [5]: 0.3%; Activity (Homo sapiens [17]): Dose-dependent effect; half-life at 0.5 µM [6]: > 2 h; Activity [18]: Non-Toxic; half-life [9]: 5.3 h; half-life at 0.5 µM [7]: > 2 h; Cmax [11]: 19.3 µM; Activity (Homo sapiens [19]): Dose-dependent effect; Tmax [12]: 7 h; Fu [8]: < 0.1%; AUC [13]: 222 µM·h; concentration at 24 h [14]: 1.3 µM
Cc1cc(NC(=O)c2nn(C3CCN(C(=O)CC(C)(C)C#N)CC3)c3ccccc23)ccc1NC(=O)c1cnn2ccccc12	370%	85%	9%	Drug metabolism [20]: Metabolite_Detected

Continued, in another order:

Emax [1]	remaining at 10 min, 0.5 µM [3]	remaining at 10 min, 0.5 µM [4]	SMILES	further results
180%	65%	15%	CC(C)(C)NC(=O)N1CCC(n2nc(C(=O)Nc3ccc(-c4ccc(=O)[nH]n4)c(Cl)c3)c3ccccc32)CC1	–
220%	80%	2%	COc1ccc2c(C(=O)Nc3ccc(NC(=O)c4nn(C5CCN(C(=O)NC(C)(C)C)CC5)c5ccccc45)cc3C)cnn2c1	–
350%	53%	78%	CCc1cc(NC(=O)c2nn(C3CCN(C(=O)NC(C)(C)C)CC3)c3ccccc23)ccc1-c1n[nH]c(=O)cc1C	Fu [5]: 0.9%; half-life at 0.5 µM [6]: 0.167 h; half-life [9]: 1.9 h; concentration [10]: 8.7 µM; half-life at 0.5 µM [7]: 0.517 h; Cmax [11]: 17.3 µM; Tmax [12]: 0.3 h; Fu [8]: 0.4%; AUC [13]: 51.5 µM·h; concentration at 24 h [14]: 0.001 µM
270%	61%	59%	CCc1cc(NC(=O)c2nn(C3CCN(C(=O)NC(C)(C)C)CC3)c3ccccc23)ccc1-c1n[nH]c(=O)c(C)c1C	Fu [5]: 1%; half-life at 0.5 µM [6]: 0.233 h; half-life at 0.5 µM [7]: 0.2 h; Fu [8]: 0.5%
350%	68%	9%	Cc1cc(=O)[nH]nc1-c1ccc(NC(=O)c2nn(C3CCN(C(=O)NC(C)(C)C)CC3)c3ccccc23)cc1Cl	–
280%	72%	1%	CCc1cc(NC(=O)c2nn(C3CCN(C(=O)NC(C)(C)C)CC3)c3ccccc23)ccc1-c1cc(C)c(=O)[nH]n1	–
